From patent US10196363B2, “Dihydropyrimidin-2-one compounds and medical use thereof” (JAPAN TOBACCO INC., priority 2014, dated 2019)
Blank lines part the entries; values can stand above or below the molecule they belong to.

Legend:
human RORγ = molecular target: T1, human RORγ (Homo sapiens, UniProt P51449); experiment: In vitro assay of inhibitory effect against RORγ transcriptional activity (GAL4-hRORγ LBD luciferase reporter gene assay in CHO cells); assay type: cell-based; conditions: for EC50: GAL4-hRORγ LBD / pG5-Luc in CHO cells, 2 days incubation; for hRORγ luciferase activity, %-of-control: value in parentheses beside the > EC50 bound, vehicle-control 0.2% DMSO alone = 100%
T1 construct: human RORγ, from Ser253 to Lys518; expressed in transfected cells; host or cells: CHO cells (Chinese hamster ovary), transient co-transfection with pG5-Luc
T1 sequence (P51449 253-518): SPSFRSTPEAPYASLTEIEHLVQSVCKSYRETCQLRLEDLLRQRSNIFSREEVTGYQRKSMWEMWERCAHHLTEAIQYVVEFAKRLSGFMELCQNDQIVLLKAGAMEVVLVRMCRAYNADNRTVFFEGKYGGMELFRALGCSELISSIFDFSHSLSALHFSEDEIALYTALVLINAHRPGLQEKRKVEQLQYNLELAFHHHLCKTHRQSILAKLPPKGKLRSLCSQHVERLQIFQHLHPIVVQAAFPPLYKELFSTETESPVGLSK
Method in brief: (§1)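 CHO cells were transiently co-transfected with a GAL4-DBD fusion of the human (Ser253–Lys518) or mouse (Ile251–Lys516) RORγ LBD plus a GAL4-luciferase reporter. Cells were treated with 8 compound concentrations (0.2% DMSO) for 2 days at 37 °C. Luciferase was expressed as %-of-vehicle control, EC50 was curve-fitted, and cytotoxic concentrations were excluded.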

mouse RORγ = molecular target: T2, mouse RORγ (Mus musculus, UniProt P51450); experiment: In vitro assay of inhibitory effect against RORγ transcriptional activity (GAL4-mRORγ LBD luciferase reporter gene assay in CHO cells); assay type: cell-based; conditions: for EC50: GAL4-mRORγ LBD / pG5-Luc in CHO cells, 2 days incubation; for mRORγ luciferase activity, %-of-control: value in parentheses beside the > EC50 bound, vehicle-control 0.2% DMSO alone = 100%
T2 construct: mouse RORγ, from Ile251 to Lys516; expressed in transfected cells; host or cells: CHO cells (Chinese hamster ovary), transient co-transfection with pG5-Luc
T2 sequence (P51450 251-516): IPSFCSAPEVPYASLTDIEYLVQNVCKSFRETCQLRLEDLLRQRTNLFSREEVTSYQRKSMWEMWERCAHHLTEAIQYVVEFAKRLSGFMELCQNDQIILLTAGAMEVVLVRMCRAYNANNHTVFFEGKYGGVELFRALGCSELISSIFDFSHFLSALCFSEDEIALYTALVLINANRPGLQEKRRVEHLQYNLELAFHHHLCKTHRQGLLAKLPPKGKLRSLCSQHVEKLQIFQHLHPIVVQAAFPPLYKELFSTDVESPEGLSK
Method in brief: as §1

SMILES: CC(C)C1=CN(CCC(=O)O)C(=O)N[C@]1(C)c1ccc(C2CCC(C)(C)CC2)c(Cl)c1 [Example 117]
EC50 (human RORγ): > 3200 nM | hRORγ luciferase activity, %-of-control (human RORγ): (106%) | EC50 (mouse RORγ): > 8000 nM | mRORγ luciferase activity, %-of-control (mouse RORγ): (76%)

SMILES: CC(C)C1=CN(CCC(=O)O)C(=O)N[C@@]1(C)c1ccc(C2CCC(C)(C)CC2)c(Cl)c1 [Example 118]
EC50 (human RORγ): 19 nM | EC50 (mouse RORγ): 17 nM

SMILES: CC(C)C1=CN(CCC(=O)O)C(=O)N[C@]1(C)c1ccc(CCC2CCCC2)c(Cl)c1 [Example 119]
EC50 (human RORγ): > 8000 nM | hRORγ luciferase activity, %-of-control (human RORγ): (74%) | EC50 (mouse RORγ): > 8000 nM | mRORγ luciferase activity, %-of-control (mouse RORγ): (76%)

SMILES: CC(C)C1=CN(CCC(=O)O)C(=O)N[C@@]1(C)c1ccc(CCC2CCCC2)c(Cl)c1 [Example 120]
EC50 (human RORγ): 61 nM | EC50 (mouse RORγ): 14 nM

SMILES: CC(C)C1=CN(CCC(=O)O)C(=O)N[C@]1(C)c1ccc(CCC2CCC2)c(Cl)c1 [Example 121]
EC50 (human RORγ): > 8000 nM | hRORγ luciferase activity, %-of-control (human RORγ): (62%) | EC50 (mouse RORγ): > 8000 nM | mRORγ luciferase activity, %-of-control (mouse RORγ): (85%)

SMILES: CC(C)C1=CN(CCC(=O)O)C(=O)N[C@@]1(C)c1ccc(CCC2CCC2)c(Cl)c1 [Example 122]
EC50 (human RORγ): 28 nM | EC50 (mouse RORγ): 15 nM

SMILES: CC(C)C1=CN(CCC(=O)O)C(=O)N[C@]1(C)c1ccc(CCCC(C)(C)C)c(Cl)c1 [Example 123]
EC50 (human RORγ): > 3200 nM | hRORγ luciferase activity, %-of-control (human RORγ): (109%) | EC50 (mouse RORγ): > 3200 nM | mRORγ luciferase activity, %-of-control (mouse RORγ): (100%)

SMILES: CC(C)C1=CN(CCC(=O)O)C(=O)N[C@@]1(C)c1ccc(CCCC(C)(C)C)c(Cl)c1 [Example 124]
EC50 (human RORγ): > 512 nM | hRORγ luciferase activity, %-of-control (human RORγ): (54%) | EC50 (mouse RORγ): 30 nM

SMILES: CC(C)C1=CN(CCC(=O)O)C(=O)N[C@@]1(C)c1ccc(OCCC(C)(C)C)c(Cl)c1 [Example 125]
EC50 (human RORγ): < 32 nM | EC50 (mouse RORγ): < 32 nM

SMILES: CC(C)C1=CN(CCC(=O)O)C(=O)N[C@@]1(C)c1ccc(OCC(C)(C)C)c(Cl)c1 [Example 126]
EC50 (human RORγ): 37 nM | EC50 (mouse RORγ): 27 nM

SMILES: COCCOc1ccc([C@]2(C)NC(=O)N(CCC(=O)O)C=C2C(C)C)cc1Cl [Example 127]
EC50 (human RORγ): 2940 nM | EC50 (mouse RORγ): 1950 nM

SMILES: CC(C)C1=CN(CCC(=O)O)C(=O)N[C@]1(C)c1ccc(CCCC(F)(F)F)c(Cl)c1 [Example 128]
EC50 (human RORγ): > 20000 nM | hRORγ luciferase activity, %-of-control (human RORγ): (66%) | EC50 (mouse RORγ): > 20000 nM | mRORγ luciferase activity, %-of-control (mouse RORγ): (54%)

SMILES: CC(C)C1=CN(CCC(=O)O)C(=O)N[C@@]1(C)c1ccc(CCCC(F)(F)F)c(Cl)c1 [Example 129]
EC50 (human RORγ): 47 nM | EC50 (mouse RORγ): < 32 nM

SMILES: CC(C)C1=CN(CCC(=O)O)C(=O)N[C@]1(C)c1ccc(CCC2(C)CC2)c(Cl)c1 [Example 131]
EC50 (human RORγ): > 8000 nM | hRORγ luciferase activity, %-of-control (human RORγ): (77%) | EC50 (mouse RORγ): > 8000 nM | mRORγ luciferase activity, %-of-control (mouse RORγ): (81%)

SMILES: CC(C)C1=CN(CCC(=O)O)C(=O)N[C@@]1(C)c1ccc(CCC2(C)CC2)c(Cl)c1 [Example 132]
EC50 (human RORγ): 18 nM | EC50 (mouse RORγ): 14 nM

SMILES: CC(C)C1=CN(CCC(=O)O)C(=O)N[C@]1(C)c1ccc(C2=CCCCC2)c(Cl)c1 [Example 133]
EC50 (human RORγ): > 8000 nM | hRORγ luciferase activity, %-of-control (human RORγ): (71%) | EC50 (mouse RORγ): > 8000 nM | mRORγ luciferase activity, %-of-control (mouse RORγ): (88%)

SMILES: CC(C)C1=CN(CCC(=O)O)C(=O)N[C@@]1(C)c1ccc(C2=CCCCC2)c(Cl)c1 [Example 134]
EC50 (human RORγ): 70 nM | EC50 (mouse RORγ): 27 nM

SMILES: CC(C)C1=CN(CCC(=O)O)C(=O)N[C@]1(C)c1ccc(C2CCCCC2)c(Cl)c1 [Example 135]
EC50 (human RORγ): > 8000 nM | hRORγ luciferase activity, %-of-control (human RORγ): (90%) | EC50 (mouse RORγ): > 8000 nM | mRORγ luciferase activity, %-of-control (mouse RORγ): (84%)

SMILES: CC(C)C1=CN(CCC(=O)O)C(=O)N[C@@]1(C)c1ccc(C2CCCCC2)c(Cl)c1 [Example 136]
EC50 (human RORγ): 94 nM | EC50 (mouse RORγ): 49 nM

SMILES: CC(C)CC1=CN(CCC(=O)O)C(=O)N[C@@]1(C)c1ccc(CCC(C)(C)C)c(Cl)c1 [Example 137]
EC50 (human RORγ): 15 nM | EC50 (mouse RORγ): 11 nM

SMILES: CC(C)C1=CN(CCC(=O)O)C(=O)N[C@]1(C)c1ccc(CCC2CCCCC2)c(Cl)c1 [Example 138]
EC50 (human RORγ): > 8000 nM | hRORγ luciferase activity, %-of-control (human RORγ): (85%) | EC50 (mouse RORγ): > 8000 nM | mRORγ luciferase activity, %-of-control (mouse RORγ): (96%)

SMILES: CC(C)C1=CN(CCC(=O)O)C(=O)N[C@@]1(C)c1ccc(CCC2CCCCC2)c(Cl)c1 [Example 139]
EC50 (human RORγ): > 512 nM | hRORγ luciferase activity, %-of-control (human RORγ): (110%) | EC50 (mouse RORγ): 27 nM

SMILES: CC(C)C1=CN(CCC(=O)O)C(=O)N[C@@]1(C)c1ccc(OCCC(F)(F)F)c(Cl)c1 [Example 140]
EC50 (human RORγ): 209 nM | EC50 (mouse RORγ): 139 nM

Results, then the molecule that gave them:

EC50 (human RORγ): > 8000 nM | hRORγ luciferase activity, %-of-control (human RORγ): (57%) | EC50 (mouse RORγ): > 8000 nM | mRORγ luciferase activity, %-of-control (mouse RORγ): (52%)
SMILES: CC(C)C1=CN(CCC(=O)O)C(=O)N[C@]1(C)c1ccc(CCC2CC(C)(C)C2)c(Cl)c1 [Example 141]

EC50 (human RORγ): > 512 nM | hRORγ luciferase activity, %-of-control (human RORγ): (102%) | EC50 (mouse RORγ): 49 nM
SMILES: CC(C)C1=CN(CCC(=O)O)C(=O)N[C@@]1(C)c1ccc(CCC2CC(C)(C)C2)c(Cl)c1 [Example 142]

EC50 (human RORγ): > 8000 nM | hRORγ luciferase activity, %-of-control (human RORγ): (90%) | EC50 (mouse RORγ): > 8000 nM | mRORγ luciferase activity, %-of-control (mouse RORγ): (100%)
SMILES: CC(C)C1=CN(CCC(=O)O)C(=O)N[C@]1(C)c1ccc(CCc2ccccc2)c(Cl)c1 [Example 143]

EC50 (human RORγ): > 512 nM | hRORγ luciferase activity, %-of-control (human RORγ): (60%) | EC50 (mouse RORγ): 37 nM
SMILES: CC(C)C1=CN(CCC(=O)O)C(=O)N[C@@]1(C)c1ccc(CCc2ccccc2)c(Cl)c1 [Example 144]

EC50 (human RORγ): 2040 nM | EC50 (mouse RORγ): 3970 nM
SMILES: CC(C)(C)CCc1ccc([C@@]2(C)NC(=O)N(CCCC(=O)O)C=C2C2CC(F)(F)C2)cc1Cl [Example 145]

EC50 (human RORγ): 14 nM | EC50 (mouse RORγ): 12 nM
SMILES: CC(C)(C)CCc1ccc([C@]2(C)NC(=O)N(CCCC(=O)O)C=C2C2CC(F)(F)C2)cc1Cl [Example 146]

EC50 (human RORγ): 59 nM | EC50 (mouse RORγ): 30 nM
SMILES: CC(C)C1=CN(CCC(=O)O)C(=O)N[C@@]1(C)c1ccc(COC(C)(C)C)c(Cl)c1 [Example 147]

EC50 (human RORγ): > 8000 nM | hRORγ luciferase activity, %-of-control (human RORγ): (57%) | EC50 (mouse RORγ): > 8000 nM | mRORγ luciferase activity, %-of-control (mouse RORγ): (69%)
SMILES: CC(C)C1=CN(CCC(=O)O)C(=O)N[C@]1(C)c1ccc(C2=CCCC2)c(Cl)c1 [Example 148]

EC50 (human RORγ): 1010 nM | EC50 (mouse RORγ): 245 nM
SMILES: CC(C)C1=CN(CCC(=O)O)C(=O)N[C@@]1(C)c1ccc(C2=CCCC2)c(Cl)c1 [Example 149]

EC50 (human RORγ): 21 nM | EC50 (mouse RORγ): 12 nM
SMILES: CC(C)CCOc1ccc([C@]2(C)NC(=O)N(CCC(=O)O)C=C2C(C)C)cc1Cl [Example 150]

EC50 (human RORγ): > 20000 nM | hRORγ luciferase activity, %-of-control (human RORγ): (56%) | EC50 (mouse RORγ): > 20000 nM | mRORγ luciferase activity, %-of-control (mouse RORγ): (57%)
SMILES: CC(C)C1=CN(CCC(=O)O)C(=O)N[C@]1(C)c1ccc(C2CCC2)c(Cl)c1 [Example 152]

EC50 (human RORγ): 327 nM | EC50 (mouse RORγ): 116 nM
SMILES: CC(C)C1=CN(CCC(=O)O)C(=O)N[C@@]1(C)c1ccc(C2CCC2)c(Cl)c1 [Example 153]

EC50 (human RORγ): 10 nM | EC50 (mouse RORγ): 14 nM
SMILES: CC(C)C1=CN(C[C@H]2C[C@H](C(=O)O)C2)C(=O)N[C@@]1(C)c1ccc(CCC(C)(C)C)c(Cl)c1 [Example 154, 3-{(S)-4-[3-chloro-4-(3,3-dimethyl-butyl)-phenyl]-5-isopropyl-4-methyl-2-oxo-3,4-dihydro-2H-pyrimidin-1-ylmethyl}-cyclobutanecarboxylic acid]
